Test results reported in patent US7897580B2, “β glycolipids as immuno-modulators” (priority 2005, dated 2011).

Tests used:
[1] = tested on: human Hep3B HCC; assay: Hep3B hepatocellular carcinoma transplanted into athymic Balb/c mice (Example 2); type: in vivo; settings: for hepatic/splenic NKT lymphocyte ratio / reduction of tumor volume (% change from maximal volume) / tumors developed (% of animals) / maximal tumor volume: daily i.p. 1.5 μg for 25 days; for hepatic/splenic NKT lymphocyte ratio: PBS control 0.38, p<0.05, FIG. 7; for reduction of tumor volume (% change from maximal volume): controls 10% increase, p<0.05, FIG. 6; for tumors developed (% of animals): controls 100%, FIG. 4; for maximal tumor volume: controls 101.14 mm^3, p<0.05, FIG. 5; for STAT4 expression in splenocytes / STAT6 expression in splenocytes: vs. controls, FIG. 9
Description: Splenocytes were isolated and red blood cells removed as previously described [Vicari, A. P., et al., Immunology Today 17(2):71 (1996)]. Intrahepatic lymphocytes were isolated from all groups of mice at the end of the study, as previously described, with some modifications [Vicari et al., (1996) ibid.; Bleicher, P. A., et al., Science 250:679-682 (1990)]. […] The connective tissue and the gall bladder were removed, and livers were place in a 10-ml dish in cold sterile PBS. Livers and spleens were crushed through a stainless mesh (size 60, Sigma Chemical Co., St. Louis Mo.). Cell suspension was placed in a 50 ml tube for 3 minutes and washed twice in cold PBS (1,250×rpm for 10 minutes), and debris was removed. Cells were re-suspended in PBS, cell suspension was placed through a nylon mesh presoaked in PBS, and unbound cells were collected. Cells were washed twice in 45 ml PBS (1,250×rpm in room temperature). For liver and spleen lymphocyte isolation 20 ml of histopague 1077 (Sigma Diagnostics, St. Louis, Mo.) were slowly placed underneath the cells suspended in 7 ml of PBS, in a 50-ml tube. The tube was centrifuged at 1,640 rpm for 15 minutes at room temperature. Cells at the interface were collected, diluted in a 50-ml tube, and washed twice with ice-cold PBS (1,250 rpm for 10 minutes). Approximately 1×10^6 cells/mouse liver were recovered. The viability by trypan blue staining was more than 95%. Both splenocytes and liver-associated lymphocytes were isolated from all animals in all experimental groups.
Immediately following lymphocyte isolation, triplicates of 2-5×10^4 cells/500 μl PBS were put into Falcon 2052 tubes incubated with 4 ml of 1% BSA for 10 minutes, and centrifuged at 1400 rpm for 5 minutes. Analysis of lymphocyte subpopulations was performed using anti-NK1.1, anti-CD3, anti-CD4 and anti CD-8 antibodies. Cells were washed twice in 1% BSA, and kept in 4° C. until reading. For the control group, only 5 μl of 1% BSA was added. Analytical cell sorting was performed on 1×10^4 cells from each group with a fluorescence-activated cell sorter (FACSTAR plus, Becton Dickinson). Only live cells were counted, and background fluorescence from non-antibody-treated lymphocytes was deducted from the levels obtained. Gates were set on forward- and side-scatters to exclude dead cells and red blood cells. The data were analyzed with Consort 30 two-color contour plot program (Becton Dickinson, Oxnard, Calif.), or the CELLQuest program.
Blood was drawn from mice in all groups and centrifuged at 14,000 rpm. Serum INFγ, IL2, IL4, IL10 and IL-12 levels were measured by “sandwich” ELISA using Genzyme Diagnostics kits (Genzyme Diagnostics, Mass.).
To determine the clinical and immunological consequences of administration of different β-glycolipids such as β-glucosylceramide (GluC), β-lactosyl-ceramide (LacC), and β-galactosyl-ceramide (GalC) and of ceramide on hepatocellular carcinoma (HCC), mice transplanted with human Hep3B HCC cells, were studied. Five groups of athymic Balb/c mice, consisting of 8 mice each, were sublethally irradiated and transplanted with human Hep3B HCC, followed by daily intraperitoneal injections of GluC, LacC, GalC, ceramide (1.5 μg in 100 μl PBS) or PBS (100μ) for 25 days. Animals were followed for tumor size and weight and for intrahepatic and intrasplenic lymphocyte subpopulations, serum cytokine levels and expression of STAT1, STAT4 and STAT6 in splenocytes.

[2] = Mixture of β-GluC and β-LacC or β-LacC alone in mice not treated with TNBS, control groups (Example 3); type: in vivo; settings: without TNBS
Protocol: As summarized in Table 3, five groups of mice were studied, each consisting of 10 mice. Colitis was induced by intracolonic installation of trinitrobenzenesulfonic acid (TNBS) on day 1 and 5 in groups A, B and D. Group A mice were fed regular chow diet. Group B mice received oral (PO) 15 μg daily of a mixture of β-GluC and β-LacC, group D received only β-LacC. Groups C and E mice were not treated with TNBS, but received oral (PO) 15 μg daily of a mixture of β-GluC and β-LacC or only β-LacC, respectively, and served as control groups.
Mice were followed for macroscopic and microscopic colitis scores, as well as for survival and functional status and weight.

[3] = tested on: TNBS colitis; assay: TNBS-induced experimental colitis, single β-glycolipids (Example 1); type: in vivo, C57Bl mice; settings: oral 15 μg daily, compared with controls
Protocol: (§1) 2,4,6-trinitrobenzene sulfonic acid (TNBS)—colitis was induced by intracolonic instillation of TNBS, 1 mg/mouse, dissolved in […] of 50% ethanol as described. [Collins, C., etal., Eur. J. Immunol. 26:3114-3118 (1996)].
(§2) Diarrhea was followed daily throughout the study.
(§3) Colitis assessment was performed 14 days following colitis induction using standard parameters [Madsen, K. L., et al., Gastroenterology 113:151-159 (1997); Trop, S., et al., Hepatology 27:746-755 (1999)].
Four macroscopic parameters were determined, namely: degree of colonic ulcerations; intestinal and peritoneal adhesions; wall thickness; and degree of mucosal edema. Each parameter was graded on a scale from 0 (completely normal) to 4 (most severe) by two experienced blinded examiners. […]
Immediately following lymphocyte isolation, triplicates of 2-5×10^4 cells/500 μl PBS were put into Falcon 2052 tubes incubated with 4 ml of 1% BSA for 10 minutes, and centrifuged at 1400 rpm for 5 minutes. […] Cells were washed twice in 1% BSA, and kept in 4° C. until reading. […] Analytical cell sorting was performed on 1×10^4 cells from each group with a fluorescence-activated cell sorter (FACSTAR plus, Becton Dickinson). Only live cells were counted, and background fluorescence from non-antibody-treated lymphocytes was deducted from the levels obtained. […]

[4] = tested on: TNBS induced colitis; assay: TNBS-induced colitis, mixture of β-GluC and β-LacC vs β-LacC alone (Example 3); type: in vivo, mice; settings: with TNBS; for Weight: share of mice, TNBS alone: Weight loss, listed as β-LC
Protocol: as §1, §2, §3
Four macroscopic parameters were determined, namely: degree of colonic ulcerations; intestinal and peritoneal adhesions; wall thickness; and degree of mucosal edema. Each parameter was graded on a scale from 0 (completely normal) to 4 (most severe) by two experienced blinded examiners.
For histological evaluation of inflammation, distal colonic tissue (last 10 cm) was removed and fixed in 10% formaldehyde. Five paraffin sections from each mouse were then stained with hematoxylin-eosin by using standard techniques. The degree of inflammation on microscopic cross sections of the colon was graded semiquantitatively from 0 to 4 [Madsen et al., (1997) ibid.; Trop et al., Hepatology 27:746-755 (1999)]. Grade 0: normal with no signs of inflammation; Grade 1: very low level of leukocyte infiltration; Grade 2: low level of leukocyte infiltration; and Grade 3: high level of infiltration with high vascular density, and bowel wall thickening; Grade 4: transmural infiltrates with loss of goblet cells, high vascular density, wall thickening, and disruption of normal bowel architecture. The grading was performed by two experienced blinded examiners.
To determine the possible immuno-modulation effect of a mixture of different β-glycolipids, the effect of a mixture of β-Glucocerebroside and β-Lactosyl-ceramide was tested using a murine model of colitis.
As summarized in Table 3, five groups of mice were studied, each consisting of 10 mice. Colitis was induced by intracolonic installation of trinitrobenzenesulfonic acid (TNBS) on day 1 and 5 in groups A, B and D. Group A mice were fed regular chow diet. […]

Row | Activity [2] | Weight ([2]; share of mice) | Substance | hepatic/splenic NKT lymphocyte ratio [1] | reduction of tumor volume (% change from maximal volume) [1] [%] | tumors developed (% of animals) [1] [%] | maximal tumor volume [1] [mm^3] | STAT4 expression in splenocytes [1] | STAT6 expression in splenocytes [1] | alleviation of colitis (microscopic colitis scores) ([3]; FIG. 1) | alleviation of colitis (microscopic colitis scores) ([3]; FIG. 1, listed as Lactosyl-ceramide) | Weight ([4]; share of mice with no weight change) | Weight ([4]; share of mice with weight increase) | Activity ([4]; TNBS alone: Lethargic)
1 | – | – | ceramide | 0.85 | 81 | 50 | 64.4 | increased | increased | – | – | – | – | –
2 | – | – | β-galactosyl-ceramide [GalC] | – | 49 | 71 | 86.1 | increased | increased | – | – | – | – | –
3 | – | – | β-glucosylceramide | 6.13 | 43 | 87 | 71.4 | – | – | – | – | – | – | –
4 | Normal | In 100% increase | β-lactosyl-ceramide [LacC] | 1.94 | 78 | 43 | 77.9 | increased | increased | most marked | most potent | In 90% no change | In 10% increase | Normal
